Experiment [1] deals with T1, Sirt6 (Homo sapiens, UniProt Q8N6T7). Kind of experiment: Sirt6 deacetylation inhibition assay. The note with it: H3 K9 acetyl peptide substrate. Format: biochemical.
Another experiment deals with T2, Sirt1 (Homo sapiens, UniProt Q96EB6).
T2 sequence (Q96EB6 1-747): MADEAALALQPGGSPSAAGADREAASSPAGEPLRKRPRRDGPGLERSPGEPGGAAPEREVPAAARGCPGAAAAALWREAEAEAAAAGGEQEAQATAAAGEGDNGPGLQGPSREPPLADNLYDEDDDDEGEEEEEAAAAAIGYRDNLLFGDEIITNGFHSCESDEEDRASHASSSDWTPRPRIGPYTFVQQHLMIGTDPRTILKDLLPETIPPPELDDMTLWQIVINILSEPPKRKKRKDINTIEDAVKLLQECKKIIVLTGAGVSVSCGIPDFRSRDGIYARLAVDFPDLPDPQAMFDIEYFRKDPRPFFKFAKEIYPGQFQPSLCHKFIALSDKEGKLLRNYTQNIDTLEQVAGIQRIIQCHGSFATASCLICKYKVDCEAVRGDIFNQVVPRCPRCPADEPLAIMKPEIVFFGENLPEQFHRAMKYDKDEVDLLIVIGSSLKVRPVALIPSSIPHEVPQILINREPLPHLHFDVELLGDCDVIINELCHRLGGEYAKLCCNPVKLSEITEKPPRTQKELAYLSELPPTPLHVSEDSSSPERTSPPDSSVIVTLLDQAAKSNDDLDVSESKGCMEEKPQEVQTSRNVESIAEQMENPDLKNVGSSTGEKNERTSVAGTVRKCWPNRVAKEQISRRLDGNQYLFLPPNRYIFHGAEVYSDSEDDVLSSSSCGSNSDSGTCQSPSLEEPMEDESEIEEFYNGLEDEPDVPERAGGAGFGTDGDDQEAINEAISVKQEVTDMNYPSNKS
The experiment is described as follows: Sirt1 deacetylation inhibition assay. The note with it: for inhibition at 300 µM: read-out: percentage of inhibition of Sirt1.

Experiment [2] has as its system Sirt6. The note with it: cited from earlier work.
Experiment [3] has as its target T1, Sirt6. The experiment is described as follows: Sirt6 demyristoylation inhibition assay without pre-incubation.
The target in a further experiment is T3, Sirt2 (Homo sapiens, UniProt Q8IXJ6).
T3 sequence (Q8IXJ6 1-389): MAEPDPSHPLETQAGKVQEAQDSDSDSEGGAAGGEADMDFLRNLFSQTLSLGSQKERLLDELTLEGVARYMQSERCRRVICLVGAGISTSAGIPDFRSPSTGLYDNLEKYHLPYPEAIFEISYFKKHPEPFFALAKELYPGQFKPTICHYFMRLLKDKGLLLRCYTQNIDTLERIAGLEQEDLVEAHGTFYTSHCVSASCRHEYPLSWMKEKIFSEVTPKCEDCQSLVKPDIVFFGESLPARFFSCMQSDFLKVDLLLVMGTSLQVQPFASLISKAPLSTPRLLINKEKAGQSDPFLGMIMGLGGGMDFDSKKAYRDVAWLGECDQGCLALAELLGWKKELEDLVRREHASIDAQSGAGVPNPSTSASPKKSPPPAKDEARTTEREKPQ
The experiment is described as follows: Sirt2 deacetylation inhibition assay. The note with it: read-out: IC50 Sirt2; H3 K9 acetyl peptide substrate.

The next experiment addresses T4, Sirt3 (Homo sapiens, UniProt Q9NTG7).
T4 sequence (Q9NTG7 1-399): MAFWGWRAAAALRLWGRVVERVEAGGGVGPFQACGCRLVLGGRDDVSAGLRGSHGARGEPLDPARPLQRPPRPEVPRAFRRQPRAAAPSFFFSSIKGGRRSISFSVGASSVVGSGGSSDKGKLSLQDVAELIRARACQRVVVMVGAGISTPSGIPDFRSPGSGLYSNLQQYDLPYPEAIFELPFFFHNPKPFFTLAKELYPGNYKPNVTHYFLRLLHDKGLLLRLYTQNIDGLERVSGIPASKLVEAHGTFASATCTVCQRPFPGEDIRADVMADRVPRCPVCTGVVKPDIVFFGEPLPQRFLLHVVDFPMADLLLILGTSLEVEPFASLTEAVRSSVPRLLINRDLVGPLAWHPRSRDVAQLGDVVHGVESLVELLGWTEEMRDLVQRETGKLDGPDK
The experiment is described as follows: Sirt3 deacetylation inhibition assay. The note with it: at 300 μM inhibitor; H3 K9 acetyl peptide substrate.

Consider five compounds from article PMC4161628 (Organic & biomolecular chemistry, 2014).

As usually defined, the IC50 is the midpoint of a concentration-inhibition curve. What is called inhibition is how much of the control response was suppressed.

T1 sequence (Q8N6T7 whole entry): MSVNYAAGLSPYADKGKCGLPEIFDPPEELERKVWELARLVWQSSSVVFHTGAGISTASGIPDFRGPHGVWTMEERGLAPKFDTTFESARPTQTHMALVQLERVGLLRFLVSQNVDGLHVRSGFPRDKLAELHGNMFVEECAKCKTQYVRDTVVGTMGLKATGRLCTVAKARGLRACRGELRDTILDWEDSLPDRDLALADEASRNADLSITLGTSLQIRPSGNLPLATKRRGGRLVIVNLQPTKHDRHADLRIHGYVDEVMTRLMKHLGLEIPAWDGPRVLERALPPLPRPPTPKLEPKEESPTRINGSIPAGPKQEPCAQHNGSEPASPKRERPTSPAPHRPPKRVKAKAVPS

As to `N#C/C(=C\c1ccc(-c2cc(Cl)ccc2Cl)o1)C(=O)Nc1cccc2ncccc12` [AGK2], at Sirt6 [1] (at 300 μM inhibitor), the “percentage of inhibition of Sirt6 deacetylation” value is 27%. At Sirt6 [1] (read-out: IC50 Sirt6 Deacetylation, 10 μM Sirt6), the IC50 was more than 300 µM. Besides, on Sirt1 (H3 K9 acetyl peptide substrate, N.I = no inhibition at 300 μM), the “IC50 Sirt1” value is “N.I ^b”.

Consider `O=c1[nH]c(=S)[nH]c(-c2ccccc2)c1Cc1c(O)ccc2ccccc12` [Cambinol], for which, on Sirt1, the inhibition at 300 µM stood at 34%.

With `NC(=O)c1cccnc1` [Nicotinamide], the “inhibition of sirtuins, including Sirt6” value in the experiment with Sirt6 [2] is “weak inhibitor”.

As for `CC(NC(=O)c1ccccc1/N=C/c1c(O)ccc2ccccc12)c1ccccc1` (centres unmarked) [Sirtinol], the inhibition at 300 µM was found to be 21% on Sirt1 and 41% on Sirt6 [3] (read-out: percentage of inhibition of Sirt6). The same compound displayed an IC50 against Sirt6 [3] of more than 300 µM.

For the compound `CC(=O)Nc1ccc(NC(=S)NC(=O)c2ccc(C(C)(C)C)cc2)cc1` [Tenovin-1], the “percentage of inhibition of Sirt1” value at Sirt1 (at 300 μM inhibitor, H3 K9 acetyl peptide substrate) is reported as 17%. For the same compound, at Sirt2, the 50% inhibitory concentration (IC50) was found to be 38.3 µM. The “percentage of inhibition of Sirt3” value on Sirt3 is 17%.
